The results in this text go back to patent US7700652B2, “Treating urinary incontinence using prodrugs of GABA analogs” (XenoPort, Inc., priority 2003, dated 2010).

The nature of this series: drug release from the osmotic sustained release dosage form in artificial gastric fluid. The format is physicochemical. The following applies: sustained release oral osmotic dosage form of Example 1 (700 mg drug composition per bilayer core, one 10 mil passageway). How it is done: Next, one 10 mil (0.254 mm) exit passageway is mechanically drilled through the semipermeable wall to connect the drug layer with the exterior of the dosage system. The residual solvent is removed by first drying for 120 hours at 50° C. and 30% relative humidity, then the systems are dried for 2 hours at 50° C. to remove excess moisture. The drug dosage form produced by this process provides: ˜90 wt % 1-{[(α-isobutanoyloxyethoxy)carbonyl]aminomethyl}-1-cyclohexane acetic acid, 4 wt % hydroxypropylmethylcellulose (11,200 molecular weight), 4 wt % polyethylene oxide of 5,000,000 molecular weight and 1 wt % magnesium stearate in the drug layer. The push composition comprises […] polyethylene oxide (7,500,000 molecular weight) 30 wt % sodium chloride, 5 wt % hydroxypropylmethylcellulose (11,200 molecular weight) 1 wt % red ferric oxide, 0.25 wt % magnesium stearate, and 0.075 wt % of butylated hydroxytoluene. The wall comprises 100 wt % cellulose acetate comprising a ˜40% acetyl content. The dosage form has one passageway, 10 mils (0.254 mm), and it has a 1-{[(α-isobutanoyloxyethoxy)carbonyl]aminomethyl}-1-cyclohexane acetic acid release rate of >20 mg/hr and a half life for drug release of >8 hours in artificial gastric fluid.

As to `CC(OC(=O)NCC1(CC(=O)O)CCCCC1)OC(=O)C(C)C` (stereo not drawn) [1-{[(α-isobutanoyloxyethoxy)carbonyl]aminomethyl}-1-cyclohexane acetic acid], the release rate was over 20 mg/h.
